The text below walks through data of PubChem BioAssay AID1959 (Broad Institute, 2009).

The structures appear in SMILES notation. Activity calls are given as the source filed them.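 How the source made its calls: active means growth-inhibition EC50 no more than tenfold above the top tested dose; inconclusive means flat fit between 30% and 70% inhibition, or unreliable fit; inactive means EC50 more than tenfold above the top tested dose.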 Bounds are passed on as bounds.

For the test, the system named is E. coli NEB5alpha growth, BacTiter-Glo luminescence, 4 h. The test is described as follows: antibacterial activity against E. coli NEB5alpha – luminescence, counter-screen for MEX-5/POS-1 RNA-binding inhibitor project, dose response (AID 1959).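 Further: pUC19-transformed ampicillin-resistant cells grown in LB with ampicillin.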
For the compound `Cc1ccc(C2C(C(=O)c3ccco3)=C(O)C(=O)N2c2nnc(C)s2)cc1` (centres undefined), the EC50 was > 11 µM (inactive).

As to `O=C(O)C(=O)/C(=C\c1ccsc1)c1ccc2ccccc2n1`, the EC50 is > 11 µM (inactive).

On to `CC(=O)NCCNc1ccc([N+](=O)[O-])cc1C#N`, for which the EC50 is > 11 µM (inactive).

Take `NC(=Nc1ccc(N)cc1)C(N)=Nc1ccc(N)cc1`: the EC50 is > 11 µM (inactive).

On to `O=C(CC1Nc2ccccc2NC1=O)c1ccccc1` (centres undefined), for which the EC50 was > 11 µM (inactive).

In the case of `O=C(CNC(=O)/C=C/c1ccco1)N=Nc1c(O)[nH]c2ccccc12`, the EC50 is > 11 µM (inactive).

On to `Oc1ccc(-c2csc(Nc3ccccn3)n2)cc1O`, for which the EC50 is > 11 µM (inactive).

For the compound `CC1(C)CC(=O)C2=C(C1)OC(N)=C(C#N)[C@@]21C(=O)N(CC(N)=O)c2ccccc21`, the EC50 was > 11 µM (inactive).

For the compound `Brc1ccc(C2=CC(c3ccco3)n3ncnc3N2)cc1` (centres undefined), the EC50 is > 11 µM (inactive).

With `COc1cc([N+](=O)[O-])cc(/C=N/NC(=O)CC#N)c1O`, the EC50 was > 11 µM (inactive).

On to `O=C(c1ccc(Br)s1)N1CCN(c2ccccn2)CC1`, for which the EC50 is > 11 µM (inactive).

Consider `O=C(O)c1ccc2c(c1)[C@@H]1C=CC[C@@H]1[C@H](c1ccccn1)N2`, for which the EC50 was > 11 µM (inactive).

Regarding `Oc1ccc2ccccc2c1C=Nc1ccc(N2CCOCC2)cc1`, the EC50 is > 11 µM (inactive).

For `CC(C)(C)c1ccc(OCc2ccc(C(=O)Nc3cccnc3)o2)cc1`, the EC50 is > 11 µM (inactive).

As to `CCC(NC(C)C)C(O)c1ccc(O)c(O)c1` (centres undefined), the EC50 was > 11 µM (inactive).

`COC(=O)C1=C(C)N(c2ccc(Cl)cc2)/C(=C/c2cccs2)C1=O`: the EC50 is > 11 µM (inactive).

As for `CCCCN1C(=O)/C(=C2/Sc3ccc(OC)cc3N2CC)SC1=S`, the EC50 is > 11 µM (inactive).

For the compound `C=CCn1c(Cc2nc3ccccc3[nH]2)n[nH]c1=S`, the EC50 is > 11 µM (inactive).

Take `Cc1cc(C)cc(N2C(=O)NC(=O)/C(=C\c3cccn3-c3ccc(Cl)cc3)C2=O)c1`: the EC50 was > 11 µM (inactive).

With `O=C1/C(=C/c2ccc(O)c(O)c2)SC(=S)N1Nc1ccccc1`, the EC50 was > 11 µM (inactive).

As for `Cn1cc(/C=C2\C(=O)NC(=O)N(c3ccccc3)C2=O)c2ccccc21`, the EC50 is > 11 µM (inactive).

Take `Cc1ccc(NC(=O)CN2C(=O)S/C(=C\c3cccn3-c3cccc(C(=O)O)c3)C2=O)cc1C`: the EC50 is > 11 µM (inactive).

`COc1cccc(-n2c(O)c(C=Nc3c(C)n(C)n(-c4ccccc4)c3=O)c(=O)[nH]c2=O)c1`: the EC50 was > 11 µM (inactive).

`CN(C)/C=C/C(=O)c1cnc(-c2ccccc2Cl)s1`: the EC50 is > 11 µM (inactive).

For `CCCN1CCc2cc(O)cc3c2[C@H]1Cc1ccc(O)c(O)c1-3`, the EC50 is > 11 µM (inactive).

As to `COC(=O)c1c(NC(=O)CC2Nc3ccccc3NC2=O)sc(C)c1C` (centres undefined), the EC50 is > 11 µM (inactive).

On to `Oc1[nH]c2ccccc2c1N=Nc1ccc(F)cc1`, for which the EC50 was > 11 µM (inactive).

Consider `CCN(CC)C(=O)Cn1cc(C(=O)C(=O)N2CCc3ccccc32)c2ccccc21`, for which the EC50 is > 11 µM (inactive).

Regarding `CC(C)CNC(=O)C1Nc2ccc(C(F)(F)F)cc2C2C=CCC12` (centres undefined), the EC50 is > 11 µM (inactive).

Take `CC(C)OCCCn1c(=NC(=O)c2cccs2)c(C#N)cc2c(=O)n3ccccc3nc21`: the EC50 is > 11 µM (inactive).

As for `CC(C)c1ccc(C2C(C#N)=C(N)N3C(=C2C#N)Sc2ccccc23)cc1` (centres undefined), the EC50 was > 11 µM (inactive).

For `O=C(CNS(=O)(=O)c1ccc([N+](=O)[O-])cc1)N/N=C/c1ccc(O)cc1O`, the EC50 is > 11 µM (inactive).

On to `CC1(C)CC(=O)C2=C(C1)OC(/N=C/N1CCCC1)=C(C#N)C2c1ccccc1` (centres undefined), for which the EC50 was > 11 µM (inactive).

Turning to `Cc1ccc(S(=O)(=O)Nc2ccccc2F)cc1C(=O)NNC(=O)c1ccccc1O`, the EC50 is > 11 µM (inactive).
